Patent US6541463B1, “Inhibitors of type 5 and type 3 17β-hydroxysteroid dehydrogenase and methods for their use” (Endorecherche, Inc., priority 1998, dated 2003)

How the values were obtained:
ZR-75-1 cells [1] = experiment: Estrogenic activity: stimulation of proliferation of ZR-75-1 cells; format: cell-based, human
Protocol: […] The manner in which the stimulation is determined is described in “Other Tests; C-Estrogenic/Antiestrogenic activity” Lower numbers are desirable. ND means that a determination was not done.
(§1) Estrogenic/antiestrogenic activity of some preferred compounds has been measured using the […] human breast cancer cell line as described in more detail below.
(§2) All media and medium supplments were purchased from Sigma. Cells were subcultured weekly by treatment with a pancreatic solution containing EDTA (0.2 g/L). The cell cultures used for the experiments herein describied were between passages 89 and 94.
(§3) Cells in their logarithmic growth phase were harvested, briefly centrifuged, and resuspended in RPMI 1640. Cells were then plated in triplicate in LIMBRO 24-well plastic culture plates (2 cm^2/well). Since plating density influences the effect of hormones on ZR-75-1 cell growth, cells were plated at a density of 1×10^4 cells/well. […] Control cultures received the ethanol vehicle only. Cells were then allowed to grow at 37° C. for 10 days with medium changes (of identical composition) every 2 days.
(§4) After E2 and/or antiestrogen treatment, cells were harvested by addition of 0.5 ml of a pancreatin solution (Sigma) for 5-10 min at 37° C. before addition of 0.5 mnl of RPMI 1640 containing 5% dextran coated […] bovine serum in order to block enzymatic action. Cell number (0.10 ml aliquot) was determined by measurement of DNA content as previously described (Simard et al., Endocrinology 126: 3223-3231,1990).

ZR-75-1 cells [2] = experiment: Antiestrogenic activity: inhibition of E2-induced proliferation of ZR-75-1 cells; format: cell-based, human; parameters: ZR-75-1 Activity, E2 / ZR-75-1 Activity E2 E^−6: unit not given here
Protocol: The manner in which the inhibition is determined is described in “Other Tests; C-Estrogenic/Antiestrogenic Activity”. Lower numbers are desirable. ND means that a determination was not done.
as §1, §2, §3, §4

[3] = target: T1, human type 2 17β-hydroxysteroid dehydrogenase (Homo sapiens, UniProt P37059); experiment: Enzymatic assay for type 2 17β-HSD; format: biochemical; conditions: for inhibition: read-out: Inhibition Type 2 17β-HSD Activity [% Inh. at 3 · 10^−8M]; for IC50: read-out: Inhibition Type 2 17β-HSD Activity IC50
T1 construct: expressed in transfected cells; host or cells: 293 cells, transient transfection; microsomal fraction (100 000×g pellet)
T1 sequence (P37059 1-387): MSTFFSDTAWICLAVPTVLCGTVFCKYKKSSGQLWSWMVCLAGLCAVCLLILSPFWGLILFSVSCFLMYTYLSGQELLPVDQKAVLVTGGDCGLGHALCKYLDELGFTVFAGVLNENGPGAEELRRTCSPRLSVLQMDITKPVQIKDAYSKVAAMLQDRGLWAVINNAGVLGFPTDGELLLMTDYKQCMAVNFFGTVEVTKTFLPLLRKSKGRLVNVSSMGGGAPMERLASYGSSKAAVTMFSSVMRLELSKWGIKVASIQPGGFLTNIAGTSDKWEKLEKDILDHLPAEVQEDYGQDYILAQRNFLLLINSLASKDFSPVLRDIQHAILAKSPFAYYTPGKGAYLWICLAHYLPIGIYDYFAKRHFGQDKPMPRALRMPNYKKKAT
Method in brief: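 Enzymes from transiently transfected 293 cells (cytosol for type 1, microsomes for types 2 and 3 17β-HSD) were incubated 1 h at 37° C in pH 7.4 phosphate/20% glycerol with 2 mM NADPH or NAD+ and 0.1 μM 14C-substrate (estrone, 4-dione, or DHT for 3α-HSD); metabolites quantified by TLC; preliminary % inhibition at 3.10^−6M.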

[4] = Table 4′, E2-induced proliferation, 3E^−8
[5] = Table 4′, bracketed values, 3 · 10^−8M

Compound	ZR-75-1 Activity, Basal E^−6 (ZR-75-1 cells [1]; Table 4′)	ZR-75-1 Activity, Basal E^−8 (ZR-75-1 cells [1]; Table 4′) [%]	ZR-75-1 Activity, E2 3E^−8 (ZR-75-1 cells [2]; [4])	inhibition [3, 5] [%]	IC50 ([3]; Table 4′) [µM]	other results
CCS(=O)(=O)Oc1ccc2c(c1)CCC1C2CCC2(C)C1CCC21CCC(C)(C)C(=O)O1 (stereo not drawn) [EM-1364-CS]	+36%	0	−12%	73	–	–
COCCOc1ccc2c(c1)CCC1C2CCC2(C)C1CCC21CCC(C)(C)C(=O)O1 [EM-1368-CS, 3-Methoxyethoxy-1,3,5(10)-estratrien-17(R)-spiro-2′-(5′,5′-dimethyl-6′-oxo)-tetrahydropyran]	+15%	0	0%	73	–	–
C=CCC1CCC2(CCC3C4CCc5cc(O)ccc5C4CCC32C)OC1=O [PB-132-152, 3-Hydroxy-1,3,5(10)-estratrien-17(R)-2′-(5′-allyl-6′-oxo)tetrahydropyran]	90%	39	−11%	50	–	–
COc1ccc2c(c1)CCC1C2CCC2(C)C1CCC21CCC(C)(C)C(=O)O1 (stereo not drawn) [EM-1370]	+24%	0	0%	33	–	–
CC1(C)CC[C@@]2(CCC3C4CCc5cc(C(N)=O)ccc5C4CCC32C)OC1=O (stereo partly drawn) [EM-1404]	0%	0	0%	–	> 10	–
CC1CCC2(CCC3C4CCc5cc(O)c([N+](=O)[O-])cc5C4CCC32C)OC1=O [EM-1131, 2-Nitro-1,3,5(10)-estratrien-3-ol-17(R)-spiro-2′-(5′-methyl-6′-oxo)tetrahydropyran]	15%	7	0%	70	–	–
COCCOc1cc2c(cc1C(N)=O)C1CC[C@@]3(C)C(CC[C@@]34CCC(C)(C)C(=O)O4)C1CC2 (stereo partly drawn) [EM-1424, 2-Carbamoyl-3-(2″-methoxyethyloxy)-1,3,5(10)-estratrien 17(R)-spiro-2′-(5′,5′-dimethyl-6′-oxo)tetrahydropyran]	0%	0	−11%	–	> 10	–
CC1CCC2(CCC3C4CCc5cc(O)c([N+](=O)[O-])cc5C4CCC32C)OC1=O [EM-1126, 2-Nitro-1,3,5(10)-estratrien-3-ol-17(R)-spiro-2′-(5′-methyl-6′-oxo)tetrahydropyran]	−89%	0	0%	–	–	Inhibition Type 2 17β-HSD Activity [% Inh. at 3 · 10^−8M] [3, 5]: [59] %
CCC[C@@H]1CC2C3C=CC4=CC(=O)CC[C@]4(C)C3CC[C@]2(C)C1=O (stereo partly drawn) [EM-1097]	–	–	–	–	–	ZR-75-1 Activity, Basal E^−6 (ZR-75-1 cells [1]): 10; ZR-75-1 Activity, Basal E^−8 (ZR-75-1 cells [1]): −8; ZR-75-1 Activity, E2 3E^−8 (ZR-75-1 cells [2]; with E2, 3E^−8): 0; ZR-75-1 Activity E2 E^−6 (ZR-75-1 cells [2]; with E2, E^−6): 0; inhibition at 3 µM ([3]; 3 · 10^−6 M, value in square brackets, read-out: Inhibition Type 2 17B-HSD Activity [% Inh. at 3 · 10^−6 M]): 53%
CC1(C)CCC2(CCC3C4CCc5cc(OS(C)(=O)=O)ccc5C4CCC32C)OC1=O (stereo not drawn) [EM-1365-CS]	0%	−17	−17%	–	> 10	–
CC1CCC2(CCC3C4CCc5ccccc5C4CCC32C)OC1=O (stereo not drawn) [EM-1025]	201%	20	0%	64	–	–
CC1CC(=O)OC2(CCC3C4CCc5cc(O)ccc5C4CCC32C)C1 [PB-132-142, 3-Hydroxy-1,3,5(10)-estratrien-17(R)-spiro-2′-(4′-methyl-6′-oxo)tetrahydropyran]	91%	38	0%	69	–	–
CCOc1ccc2c(c1)CCC1C2CC[C@@]2(C)C1CC[C@@]21CCC(C)(C)C(=O)O1 (stereo partly drawn) [EM-1369, 3-Ethoxy-1,3,5(10)-estratrien-17(R)-spiro-2′-(5′,5′-dimethyl-6′-oxo)-tetrahydropyran]	+84%	0	+18%	62	–	–
C[C@]12CCC3c4ccc(O)cc4CCC3C1CC[C@@]21CCCC(=O)O1 (stereo partly drawn) [EM-919, 1,3,5(10)-estratrien-3-ol-17(R)-spiro-2′(6′-oxo)tetrahydropyran]	−20%	0	−18%	86	–	–
CC(=O)[C@@]1(OC(=O)CCCCF)CCC2C3C=C(C)C4=CC(=O)CC[C@]4(C)C3CC[C@@]21C (stereo partly drawn) [EM-1195-CS]	–	–	–	–	–	ZR-75-1 Activity, Basal (ZR-75-1 cells [1]; E^−6, in %): 18; ZR-75-1 Activity, Basal (ZR-75-1 cells [1]; E^−8, in %): −11; ZR-75-1 Activity, E2 (ZR-75-1 cells [2]; E2): −40; ZR-75-1 Activity, E2 (ZR-75-1 cells [2]; E2, E^−8): −38; Inhibition Type 2 17β-HSD Activity [% Inh.] ([3]; at 3.10^-8M): [40] %
COCCOc1cc2c(cc1Cl)C1CCC3(C)C(CCC34CCC(C)(C)C(=O)O4)C1CC2 (stereo not drawn) [EM-1371-CS]	+137%	0	0%	–	> 10	–
COCCOc1cc2c(cc1C(=O)OC)C1CC[C@@]3(C)C(CC[C@@]34CCC(C)(C)C(=O)O4)C1CC2 (stereo partly drawn) [EM-1402-CS, 2-Carbomethoxy-3-(2″-methoxyethyloxy)-1,3,5(10)-estratrien 17(R)-spiro-2′-(5′,5′-dimethyl-6′-oxo)tetrahydropyran]	−10%	0	0%	–	> 10	inhibition at 1 µM (ZR-75-1 cells [2]; Homo sapiens, ZR-75-1, 10^−6 M inhibitor, negative number = stimulation reduced, read-out: percentage of inhibition of E2-induced proliferation of ZR-75-1 cells): 61%
COc1ccc2c(c1)C(=O)CC1C3CCC4(CCC(C)(C)C(=O)O4)C3(C)CCC21O (stereo not drawn) [EM-1386]	−12%	0	0%	–	> 10	–
